Each structure is given as a SMILES string. Where only a bound is given, the exact number is not on record here.

Data set [1] relates to L1210. The data set can be described thus: Cytotoxicity against mouse L1210 cells assessed as inhibition of cell viability after 72 hrs by MTT assay. Format: functional, cell-based. To be noted: L1210, 72 h. (Tetrazolium assays rely on reduction of a dye to a coloured formazan, in cell work by metabolically active cells.)
Data set [2] relates to PBMC. The data set is described as follows: Cytotoxicity against human PBMC assessed as inhibition of cell viability after 72 hrs by MTT assay. Format: cell-based.
Data set [3] relates to L1210. The data set is described as follows: Antitumor activity against mouse L1210 cells assessed as inhibition of [3H]thymidine incorporation after 72 hrs. The format is functional, cell-based. Background: Uptake of a labelled nucleoside into DNA is a usual measure of proliferation.
Data set [4] concerns L1210. The data set can be described thus: Cytotoxicity against mouse L1210 cells assessed as inhibition of cell viability after 72 hrs by MTT assay relative to control. Format: functional. Set-up: concentration or dose not given beside the values. The following applies: values are per cent of control.
The subject of data set [5] is L1210. The data set can be described thus: Ratio of IC50 for mouse L1210 cells by MTT assay to EC50 for mouse L1210 cells by [3H]thymidine incorporation assay. Format: functional.
The test system of data set [6] is L1210. The data set can be described thus: Antitumor activity against mouse L1210 cells assessed as inhibition of [3H]thymidine incorporation at 0.25 mg/ml after 72 hrs relative to control. The format is functional.
Data set [7] can be described thus: Cytotoxicity against human PBMC assessed as inhibition of cell viability at 0.25 mg/ml after 72 hrs by MTT assay. Format: cell-based. The following applies: PBMC (peripheral blood mononuclear cells), read-out: INH.
Data set [8] relates to L1210. The data set can be described thus: Antitumor activity against mouse L1210 cells assessed as inhibition of [3H]thymidine incorporation at 0.215 mg/ml after 72 hrs relative to control. Format: functional.
Data set [9] can be described thus: Cytotoxicity against human PBMC assessed as inhibition of cell viability at 0.5 mg/ml after 72 hrs by MTT assay. Format: cell-based. The following applies: PBMC (peripheral blood mononuclear cells), read-out: INH.
Data set [10] in a line: Cytotoxicity against human PBMC assessed as inhibition of cell viability at 0.21 mg/ml after 72 hrs by MTT assay. To be noted: PBMC (peripheral blood mononuclear cells), read-out: INH. The format is cell-based.
Data set [11] has as its system L1210. The data set can be described thus: Antitumor activity against mouse L1210 cells assessed as inhibition of [3H]thymidine incorporation at 0.5 mg/ml after 72 hrs relative to control. To be noted: values are per cent of control. The format is functional.
The subject of data set [12] is L1210. The data set can be described thus: Cytotoxicity against mouse L1210 cells assessed as inhibition of cell viability at 0.5 mg/ml after 72 hrs by MTT assay. The format is functional. The following applies: L1210, 72 h.

Regarding `CC(=O)N[C@H]1[C@@H](OCc2ccccc2)O[C@H](CO)[C@@H](O)[C@@H]1O[C@H](C)C(=O)N[C@@H](C(=O)N[C@H](CCC(=O)O)C(N)=O)C(C)C`, the values for the IC50 in data set [1] and in data set [2] were 266 µM and 244 µM, respectively. In [3], the EC50 turned out to be 228 µM. The “viability, % of control” value in data set [4] is listed as 39.72%. Besides, the “Ratio IC50/EC50” value in data set [5] turned out to be 47.9. Besides, the inhibition at 250 µg/mL in [6] was 0.83%. Further, in data set [7], the cytotoxicity at 72 h, 0.25 mg/ml was < 50%.
For the compound `CC(=O)N[C@H]1[C@@H](OCc2ccccc2)O[C@H](CO)[C@@H](O)[C@@H]1OCC(=O)N[C@@H](C(=O)N[C@H](CCC(=O)O)C(N)=O)C(C)C`, the IC50 is 170 µM in data set [1] and 361 µM in [2]. For the same compound, the EC50 in [3] worked out at 193 µM. Moreover, the “viability, % of control” value in data set [4] worked out at 26.6%. Also, the “Ratio IC50/EC50” value in [5] was 23.7. Also, the inhibition at 215 µg/mL in data set [8] was determined as 1.12%. In addition, in data set [9], the cytotoxicity at 72 h, 0.5 mg/ml is < 50%. The cytotoxicity at 72 h, 0.21 mg/ml in data set [10] was < 50%.
For the compound `CC[C@@H](NC(=O)CO[C@H]1[C@H](O)[C@@H](CO)O[C@H](OCc2ccccc2)[C@@H]1NC(C)=O)C(=O)N[C@H](CCC(=O)NCCNc1ncnc2c1ncn2[C@@H]1O[C@H](CO)[C@@H](O)[C@H]1O)C(N)=O`, the figures for the IC50 in data set [1] and in data set [2] were 571 µM and 466 µM, respectively. For the same compound, the EC50 in data set [3] worked out at 506 µM. Moreover, the “viability, % of control” value in [4] is 53.6%. In data set [11], the growth, % of control at 500 µg/mL worked out at 2.73%. For the same compound, in data set [5], the “Ratio IC50/EC50” value came out at 19.6. Also, the inhibition at 500 µg/mL in data set [12] is < 50%.
Consider `CC(=O)N[C@H]1[C@@H](OCc2ccccc2)O[C@H](CO)[C@@H](O)[C@@H]1OCC(=O)N1CCC[C@@H]1C(=O)N[C@H](CCC(=O)NCCNc1ncnc2c1ncn2[C@@H]1O[C@H](CO)[C@@H](O)[C@H]1O)C(N)=O`, for which the IC50 in [1] stood at 562 µM; in data set [2], 280 µM. Moreover, in [3], the EC50 was 511 µM. In data set [4], the “viability, % of control” value turned out to be 52.99%. Moreover, the growth, % of control at 500 µg/mL in data set [11] was 6.1%. In [5], the “Ratio IC50/EC50” value was 8.7. Further, in data set [12], the inhibition at 500 µg/mL was < 50%.
For the compound `CC(=O)N[C@H]1[C@@H](OCc2ccccc2)O[C@H](CO)[C@@H](O)[C@@H]1O[C@H](C)C(=O)N[C@H](C(=O)N[C@H](CCC(=O)NCCNc1ncnc2c1ncn2[C@@H]1O[C@H](CO)[C@@H](O)[C@H]1O)C(N)=O)C(C)C`, the IC50 in data set [1] and in data set [2] was 555 µM in each case. Also, the EC50 in data set [3] worked out at 292 µM. In data set [4], the “viability, % of control” value worked out at 59.37%. For the same compound, in data set [11], the growth, % of control at 500 µg/mL amounted to 31.1%. In addition, the “Ratio IC50/EC50” value in data set [5] is on record as 1.9. In addition, in [12], the inhibition at 500 µg/mL was < 50%. In addition, the cytotoxicity at 72 h, 0.5 mg/ml in [9] was < 50%.

What is called IC50 is the midpoint of a concentration-inhibition curve. Broadly, the EC50 is the concentration giving half of the maximal effect. The term inhibition denotes the share of the control response that was lost under treatment.

These data come from ChEMBL document CHEMBL3351506, “Synthesis and antiproliferative activity of conjugates of adenosine with muramyl dipeptide and nor-muramyl dipeptide derivatives” (Bioorg Med Chem Lett, 2014).
